# Test results reported in US9695155B2, “Herbicidal substituted pyrimidinyloxy benzene compounds” (E. I. DU PONT DE NEMOURS AND COMPANY, priority 2013, dated 2017).
# How the values were obtained:
# large (Lg) crabgrass [1] = experiment: Test A postemergence; type: in vivo, Digitaria sanguinalis
# In short: (§1)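 Compounds in non-phytotoxic solvent with surfactant applied as soil spray preemergence, or postemergence to plants 2-10 cm at one- to two-leaf stage, in loam/sand. After approximately 10 days in greenhouse, injury rated visually versus untreated controls, 0 (no effect) to 100 (complete control).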
# kochia = experiment: Test C postemergence; type: in vivo, Kochia scoparia
# In short: (§2)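 Sown in loam/sand → sprayed pre-emergence; or grown to 1–4 leaves in peat mix → sprayed post-emergence. Same solvent/surfactant formulation both ways. Greenhouse 13–15 d. Score 0–100 visual.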
# velvetleaf [2] = experiment: Test A postemergence; type: in vivo, Abutilon theophrasti; conditions: 0 to 100 scale where 0 is no effect and 100 is complete control
# In short: as §1
# wheat [3] = experiment: Test A postemergence; type: in vivo, Triticum aestivum; conditions: 0 to 100 scale where 0 is no effect and 100 is complete control
# In short: as §1
# rice = experiment: Test B flooded paddy test; type: in vivo, Oryza sativa; conditions: Flood, 250 g ai/ha; 0 to 100 scale where 0 is no effect and 100 is complete control
# In short: (§3)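 Greenhouse flooded-pot test: compounds dosed into 3 cm standing water over 2-leaf plants, flood held constant. Rated visually after 13–15 days on 0–100 (complete control = 100); a dash marks no test result.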
# oilseed rape = experiment: Test C postemergence; type: in vivo, Brassica napus
# In short: as §2
# velvetleaf [4] = experiment: Test A preemergence; type: in vivo, Abutilon theophrasti; conditions: for Velvetleaf plant response rating: 500 g ai/ha
# In short: as §1
# wheat [5] = experiment: Test A preemergence; type: in vivo, Triticum aestivum; conditions: for Wheat plant response rating: 500 g ai/ha
# In short: as §1
# giant foxtail = experiment: Test A postemergence; type: in vivo, Setaria faberii; conditions: 0 to 100 scale where 0 is no effect and 100 is complete control
# In short: as §1
# Heteranthera limosa = experiment: Test B flooded paddy test; type: in vivo; conditions: Flood, 250 g ai/ha; 0 to 100 scale where 0 is no effect and 100 is complete control
# In short: as §3
# morningglory = experiment: Test C postemergence; type: in vivo, Ipomoea coccinea
# In short: as §2
# soybean = experiment: Test C postemergence; type: in vivo, Glycine max
# In short: as §2
# velvetleaf [6] = experiment: Test C postemergence; type: in vivo, Abutilon theophrasti
# In short: as §2
# pigweed = experiment: Test C postemergence; type: in vivo, Amaranthus retroflexus
# In short: as §2
# lambsquarters = experiment: Test C postemergence; type: in vivo, Chenopodium album
# In short: as §2
# large (Lg) crabgrass [7] = experiment: Test A preemergence; type: in vivo, Digitaria sanguinalis; conditions: for Crabgrass, Large plant response rating: 500 g ai/ha
# In short: as §1
# [8] = 125 g ai/ha, 0 to 100 scale where 0 is no effect and 100 is complete control
# [9] = 16 g ai/ha, postemergence, 0 is no effect, 100 is complete control
# [10] = 31 g ai/ha, postemergence, visual rating, scale 0 to 100 (0 no effect, 100 complete control), 13 to 15 days
# [11] = 125 g ai/ha, postemergence, visual rating, scale 0 to 100 (0 no effect, 100 complete control)
# [12] = Postemergence, 62 g ai/ha, scale 0 to 100 (0 no effect, 100 complete control)
# [13] = 0 to 100 scale where 0 is no effect and 100 is complete control
# [14] = Postemergence, 31 g ai/ha, scale 0 to 100 (0 no effect, 100 complete control), 13 to 15 days
# [15] = 0 to 100 scale, 0 no effect, 100 complete control, approx. 10 days
structure (smiles),measurement,setting,value
FC(F)(F)c1cnn(-c2c(Br)cccc2Oc2ncc(Cl)cn2)c1 [Compound 191],"Crabgrass, Large plant response rating",large (Lg) crabgrass [1]; [8],50
same,"Plant response rating, Crabgrass, Large","large (Lg) crabgrass [1]; 500 g ai/ha, 0 to 100 scale where 0 is no effect and 100 is complete control",90
same,"Plant response rating (0 to 100), Kochia",kochia; [9],85
same,Kochia plant response rating,kochia; [10],95
same,"Plant response rating, Kochia",kochia; [11],100
same,"Plant response rating, Kochia",kochia; [12],98
same,Velvetleaf plant response rating,velvetleaf [2]; 125 g ai/ha,90
same,"Plant response rating, Velvetleaf",velvetleaf [2]; 500 g ai/ha,100
same,Wheat plant response rating,wheat [3]; 125 g ai/ha,20
same,"Plant response rating, Wheat",wheat [3]; 500 g ai/ha,40
same,"Plant response rating, Rice",rice,0
same,"Plant response rating (0 to 100), Oilseed Rape",oilseed rape; [9],10
same,Oilseed Rape plant response rating,oilseed rape; [10],45
same,"Plant response rating, Oilseed Rape",oilseed rape; [11],50
same,"Plant response rating, Oilseed Rape",oilseed rape; [12],50
same,Velvetleaf plant response rating (0 to 100 scale),velvetleaf [4]; 125 g ai/ha,80
same,Velvetleaf plant response rating,velvetleaf [4]; [13],90
same,Wheat plant response rating (0 to 100 scale),wheat [5]; 125 g ai/ha,20
same,Wheat plant response rating,wheat [5]; [13],40
same,"Foxtail, Giant plant response rating",giant foxtail; 125 g ai/ha,50
same,"Plant response rating, Foxtail, Giant",giant foxtail; 500 g ai/ha,90
same,"Plant response rating, Ducksalad",Heteranthera limosa,95
same,"Plant response rating (0 to 100), Morningglory",morningglory; [9],40
same,Morningglory plant response rating,morningglory; [10],85
same,"Plant response rating, Morningglory",morningglory; [11],50
same,"Plant response rating, Morningglory",morningglory; [12],85
same,"Plant response rating (0 to 100), Soybean",soybean; [9],40
same,Soybean plant response rating,soybean; [10],55
same,"Plant response rating, Soybean",soybean; [11],30
same,"Plant response rating, Soybean",soybean; [12],60
same,"Plant response rating (0 to 100), Velvetleaf",velvetleaf [6]; [9],50
same,Velvetleaf plant response rating,velvetleaf [6]; [10],65
same,"Plant response rating, Velvetleaf",velvetleaf [6]; [11],65
same,"Plant response rating, Velvetleaf",velvetleaf [6]; [12],75
same,"Plant response rating (0 to 100), Pigweed",pigweed; [9],95
same,Pigweed plant response rating,pigweed; [10],85
same,"Plant response rating, Pigweed",pigweed; [11],98
same,"Plant response rating, Pigweed",pigweed; [12],95
same,"Plant response rating (0 to 100), Lambsquarters",lambsquarters; [9],85
same,Lambsquarters plant response rating,lambsquarters; [10],60
same,"Plant response rating, Lambsquarters",lambsquarters; [11],95
same,"Plant response rating, Lambsquarters",lambsquarters; [12],75
same,"Crabgrass, Large plant response rating (0 to 100 scale)",large (Lg) crabgrass [7]; 125 g ai/ha,100
same,"Crabgrass, Large plant response rating",large (Lg) crabgrass [7]; [13],100
N#Cc1cccc(Oc2ncc(Cl)cn2)c1-n1cc(Cl)cn1 [Compound 72],"Plant response rating, Crabgrass, Large",large (Lg) crabgrass [1]; [8],100
same,"Plant response rating, Crabgrass, Large","large (Lg) crabgrass [1]; 500 g ai/ha, 0 to 100 scale, 0 no effect, 100 complete control",100
same,"Plant response rating (0 to 100), Kochia","kochia; 125 g ai/ha, postemergence",95
same,"Plant response rating (0 to 100), Kochia","kochia; 250 g ai/ha, postemergence",95
same,"Plant response rating, Kochia",kochia; [14],90
same,"Plant response rating, Kochia",kochia; [12],90
same,"Plant response rating, Velvetleaf",velvetleaf [2]; 125 g ai/ha,100
same,"Plant response rating, Velvetleaf",velvetleaf [2]; 500 g ai/ha,100
same,"Plant response rating, Wheat",wheat [3]; 125 g ai/ha,20
same,"Plant response rating, Wheat",wheat [3]; 500 g ai/ha,50
same,"Plant response rating, Rice",rice,0
same,"Plant response rating (0 to 100), Oilseed Rape","oilseed rape; 125 g ai/ha, postemergence",70
same,"Plant response rating (0 to 100), Oilseed Rape","oilseed rape; 250 g ai/ha, postemergence",90
same,"Plant response rating, Oilseed Rape",oilseed rape; [14],55
same,"Plant response rating, Oilseed Rape",oilseed rape; [12],70
same,"Plant response rating, Velvetleaf",velvetleaf [4]; [8],90
same,Velvetleaf plant response rating,velvetleaf [4]; [15],100
same,"Plant response rating, Wheat",wheat [5]; [8],20
same,Wheat plant response rating,wheat [5]; [15],60
same,"Plant response rating, Foxtail, Giant",giant foxtail; 125 g ai/ha,90
same,"Plant response rating, Foxtail, Giant",giant foxtail; 500 g ai/ha,100
same,"Plant response rating, Ducksalad",Heteranthera limosa,75
same,"Plant response rating (0 to 100), Morningglory","morningglory; 125 g ai/ha, postemergence",85
same,"Plant response rating (0 to 100), Morningglory","morningglory; 250 g ai/ha, postemergence",90
same,"Plant response rating, Morningglory",morningglory; [14],75
same,"Plant response rating, Morningglory",morningglory; [12],75
same,"Plant response rating (0 to 100), Soybean","soybean; 125 g ai/ha, postemergence",90
same,"Plant response rating (0 to 100), Soybean","soybean; 250 g ai/ha, postemergence",95
same,"Plant response rating, Soybean",soybean; [12],80
same,"Plant response rating (0 to 100), Velvetleaf","velvetleaf [6]; 125 g ai/ha, postemergence",55
same,"Plant response rating (0 to 100), Velvetleaf","velvetleaf [6]; 250 g ai/ha, postemergence",75
same,"Plant response rating, Velvetleaf",velvetleaf [6]; [14],40
same,"Plant response rating, Velvetleaf",velvetleaf [6]; [12],40
same,"Plant response rating (0 to 100), Pigweed","pigweed; 125 g ai/ha, postemergence",85
same,"Plant response rating (0 to 100), Pigweed","pigweed; 250 g ai/ha, postemergence",95
same,"Plant response rating, Pigweed",pigweed; [14],70
same,"Plant response rating, Pigweed",pigweed; [12],80
same,"Plant response rating (0 to 100), Lambsquarters","lambsquarters; 125 g ai/ha, postemergence",85
same,"Plant response rating (0 to 100), Lambsquarters","lambsquarters; 250 g ai/ha, postemergence",98
same,"Plant response rating, Lambsquarters",lambsquarters; [14],75
same,"Plant response rating, Lambsquarters",lambsquarters; [12],75
same,"Plant response rating, Crabgrass, Large",large (Lg) crabgrass [7]; [8],100
same,"Crabgrass, Large plant response rating",large (Lg) crabgrass [7]; [15],100
